{"source": "paper PMC12053642", "about": "“Oral PRI-002 treatment in patients with MCI or mild AD: a randomized, double-blind phase 1b trial” (Nature Communications, 2025)", "origin": "cited, not measured here", "settings": "Day 1 of the MAD study; dose 320 mg/person; cited from earlier work", "method": "On the two test days (Day 1 and Day 28), plasma levels were highly variable (Fig. 1). Coefficient of variations (CVs) were clearly above 100% at 0.5 h after the first treatment and at the pre-treatment time of Day 28 (Supplementary Table 8). […] The high variability is due to a non-Gaussian data distribution. Mean maximum plasma levels on Day 1 (Day 28) of 4.46 ± 3.71 ng/ml (12.6 ...", "note": "Square brackets hold non-standard residues; d marks the D form. Peptide text beside a SMILES is read from it.", "data": [{"compound": "CC(C)C[C@@H](NC(=O)[C@H](NC(=O)[C@H]1CCCN1)[C@H](C)O)C(=O)N[C@H](Cc1c[nH]cn1)C(=O)N[C@@H](C(=O)N[C@H](Cc1c[nH]cn1)C(=O)N[C@H](CC(N)=O)C(=O)N[C@H](CCCNC(=N)N)C(=O)N[C@H](CCCNC(=N)N)C(=O)N[C@H](CCCNC(=N)N)C(=O)N[C@H](CCCNC(=N)N)C(=O)N[C@H](CCCNC(=N)N)C(N)=O)[C@H](C)O", "note": "[PRI-002] (H-[dP][dT][dL][dH][dT][dH][dN][dR][dR][dR][dR][dR]-NH2; N-terminus and C-terminus assumed)", "values": [{"measurement": "AUC0-4 hour", "result": 33.7, "unit": "ng·h/mL"}, {"measurement": "partial AUC up to 4 h as percentage of total AUC", "result": 44.2, "unit": "%"}]}]}
